1 compound from US20070254038A1, “Microspheroidal Controlled Release Of Biomolecules” (The Trustees of the University of Pennsylvania, priority 2006, published 2007) can be followed below.

The nature of this data set: Incorporation of vancomycin into acid-catalyzed (AC) and acid-base catalyzed (ABC) sols: clear vs cloudy (precipitation). The format is physicochemical. Here is the method: TEOS (10 ml) and 0.1 M HCl (2.4 ml), with or without the addition of deionized water, were mixed using a magnetic stirrer until a one-phase sol was formed. The water/TEOS molar ratio varied from 0 to 10. Pharmaceutical agents were then added to the sol. For example, Sols with 20 mg/g and 30 mg/g of vancomycin (drug to SiO2 ratio), and sols with 50 mg/g and 80 mg/g of bupivacaine per gram SiO2 were made by adding corresponding amounts of the drug. The sol containing added pharmaceutical agents was mixed for 30 minutes at 660 rpm and was then allowed to stand for 15 minutes. Subsequently, 0.08 M NH4OH (2.2-2.4 ml) was added dropwise to the sol, which was stirred at 660 rpm targeting a final pH of about 5.5. Under these conditions, the time to gelation varied from about 20 and 40 minutes. Upon mixing, the sol was added dropwise into vegetable oil stirred at speeds between 220 and 440 rpm and microspheres precipitated to the bottom of the beaker. Microspheres were filtered through a 70 μm nylon microporous filter and then rinsed with DI water and alcohol. The microspheres were left to dry overnight in a laminar flow hood.
Vancomycin (vancomycin-HCl; Abbott Labs, Chicago, Ill.) dissolved in water at 100 mg/ml was used for incorporation into the sols. Bupivacaine (Spectrum, New Brunswick, N.J.) dissolved in methanol at 70 mg/ml was also used for incorporation into the sols.
The effect of water content on the incorporation of vancomycin into the sol was studied by using either “water-free” (no additional water added other than that contained in the aqueous HCl solution) acid-catalyzed sols or sols with added water/TEOS molar ratios (R) of 5, 6, 8, and 10. […] When water was added at R=4, low doses of vancomycin such as 16.7 mg/g SiO2 could be added to the acid-catalyzed sol.

Entries after “also recorded” stand apart in the source; their conditions may differ.

In the case of `CN[C@H](CC(C)C)C(=O)N[C@H]1C(=O)N[C@@H](CC(N)=O)C(=O)N[C@H]2C(=O)N[C@H]3C(=O)N[C@H](C(=O)N[C@H](C(=O)O)c4cc(O)cc(O)c4-c4cc3ccc4O)[C@H](O)c3ccc(c(Cl)c3)Oc3cc2cc(c3O[C@@H]2O[C@H](CO)[C@@H](O)[C@H](O)[C@H]2O[C@H]2C[C@](C)(N)[C@H](O)[C@H](C)O2)Oc2ccc(cc2Cl)[C@H]1O` [Vancomycin, vancomycin], the “appearance of sol on incorporation of vancomycin” value (“appearance of sol” below) was “cloudy” (water-free AC sol, vancomycin loading 16.7 mg/g); “precipitation of vancomycin was seen; also recorded: cloudy” (water/TEOS R=4, ABC sol (after base), loading 16.7 mg/g); “clear” (water/TEOS R=4, AC sol, loading 16.7 mg/g); “vancomycin precipitation was observed; also recorded: cloudy” (water/TEOS R=5, ABC sol (after base), loading 28 mg/g); “clear” (water/TEOS R=5, ABC sol, loading 16.7 mg/g); “clear” (water/TEOS R=5, ABC sol, loading 22.2 mg/g). The “appearance of sol” value is on record as “clear” (water/TEOS R=5, AC sol, loading 16.7 mg/g); “clear” (water/TEOS R=5, AC sol, loading 22.2 mg/g); “clear” (water/TEOS R=5, AC sol, loading 28 mg/g); “clear” (water/TEOS R=8, ABC sol, loading 22.2 mg/g); “clear” (water/TEOS R=8, ABC sol, loading 33 mg/g); “clear” (water/TEOS R=8, AC sol, loading 22.2 mg/g). The “appearance of sol” value is on record as “clear” (water/TEOS R=8, AC sol, loading 33 mg/g); “clear” (water/TEOS R=10, ABC sol, loading 22.2 mg/g); “clear” (water/TEOS R=10, AC sol, loading 22.2 mg/g). Moreover, the “precipitation after the addition of the drug and base” value (water/TEOS R=5, doses up to 20 mg/g SiO2) is given as “no precipitation was observed”. Also, the “incorporation of higher loads into the sol” value (water/TEOS ratios 8 and above, load such as 28 mg/g SiO2) is listed as “successfully incorporated”.
